Converted amounts (≈) assume the structure as drawn. Counter-ions that a name gives are not always drawn.

We go through 23 compounds from patent publication US11077109B2, “Compounds having antibacterial activity and methods of use” (The Trustees of Princeton University, priority 2017, dated 2021).

Test [1] has as its system Cpx envelope stress response (cpxP). The test is described as follows: cpxP expression (Cpx envelope stress response activation). As to conditions: drug at one to one-half the MIC (AGAs and chloramphenicol 5 μg/ml, triflupromazine 50 μg/ml). Format: cell-based, E. coli MC4100 wild type. The text has this:
Thus, that the three AGAs fell into a distinct neighborhood not similar to the other ribosome-targeting antibiotics was unsurprising.

In test [2] the test system is E. coli MC4100 imp4213 (imp) strain. As to the kind of experiment: MIC of lead compounds on the imp strain, microdilution method in 96-well plates. It is filed as cell-based. The text has this:
With the aim of finding antibiotics with novel MOAs, an unbiased whole-cell screening approach was applied. To include antibiotics that target either gram-negative and gram-positive bacteria, compounds were screened that inhibited growth of the E. coli MC4100 imp4213 (imp) strain, which has a compromised OM that makes it permeable to antibiotics that would otherwise not penetrate the gram-negative lipolysaccheride (LPS). […] unique compounds spanning 5 libraries were screened, with 32,343 compounds represented once, 923 duplicates, 114 triplicates, 12 quadruplicates and 2 compounds represented five times, all at the concentration of 50 uM in DMSO.
From the 186 unique hits, 32 lead compounds were selected that either had not been identified as antibiotics or had unknown or ambiguous MOAs for further investigation. To understand the potency of these compounds, their minimum inhibitory concentration (MIC) was measured on the imp strain using the microdilution method in 96-well plates.
(In general: Dilution methods test growth across graded concentrations, often in twofold steps.)

The test system of test [3] is Enterococcus faecium ATCC BAA-2320. As to the kind of experiment: MIC against panel of clinically important pathogens: E. faecium. The following applies: ATCCBAA2320, read-out: MIC (inhibiting concentration), E. faecium. Format: cell-based. On the procedure:
(§1) In an effort to understand how effective these 8, possibly novel, antibiotics might be in treating infections, their MICs against a panel of 22 clinically important pathogens shown in Table II were measured. In addition, the MICs of 3 other compounds of interest, rivaroxaban, AZT, and triflupromazine, were measured which were associated with specific drug classes. Of particular interest, ONO-RS-82 inhibited C. difficile and N. gonorrhoeae with at concentrations of 2 μg/ml and 0.25 μg/ml respectively.

Test [4] has as its system Neisseria gonorrhoeae CCUG57598. As to the kind of experiment: MIC against panel of clinically important pathogens: N. gonorrhoeae. It is filed as cell-based. The following applies: read-out: MIC (inhibiting concentration), N. gonorrhoeae. On the procedure: as §1
Test [5] concerns methicillin resistant S. aureus (NARSA NRS384). The test is described as follows: MIC against panel of clinically important pathogens: methicillin resistant S. aureus. It is filed as cell-based. As to conditions: Staphylococcus aureus, read-out: MIC (inhibiting concentration), methicillin resistant S. aureus. On the procedure: as §1
Test [6] concerns folate metabolites in NCM 3722 E. coli cells. As to the kind of experiment: Metabolomics and mass spectrometry of folate metabolites. Format: cell-based.
Another test relates to NCM 3722 E. coli cells. The test is described as follows: MIC on NCM 3722 E. coli. Format: cell-based. As to conditions: NCM 3722 cells, Gutnick Minimal Media.
The test system of test [7] is Clostridium difficile ATCC BAA-1875. The test is described as follows: MIC against panel of clinically important pathogens: C. difficile. Format: cell-based. As to conditions: Clostridioides difficile, ATCCBAA1875, read-out: MIC (inhibiting concentration), C. difficile. As to the method: as §1
Test [8] deals with B. subtilis essential gene knockdown library (folC, folA). Format: cell-based. The text has this: The classical method of identifying the molecular target of an antibiotic is by selecting for antibiotic resistant mutants. However, SCH resistant mutants were not easily identified. A potential reason for this may be that SCH has multiple targets. To probe this hypothesis, a B. subtilis essential gene knockdown library was screened to select for strains that were sensitized to SCH (FIG. 12A). This library consists of ˜300 individual strains where the expression of each essential gene is repressed 3-fold by CRISPR interference (CRISPRi). This library was pinned onto agar plates containing a sub-MIC dose of SCH and the relative fitness of each gene was measured (FIG. 12A). […]

The next test relates to ΔthyA lptD4213 cells. The test is described as follows: Susceptibility of ΔthyA cells. Format: cell-based, E. coli. As to conditions: supplemented with exogenous Thymine.
Where [9] appears, read: E. coli MC4100 imp4213 (imp) strain, microdilution.

Procedure for ΔthyA lptD4213 cells: To test this hypothesis, the membrane potential and membrane permeability of lptD4213 cells were measured using the fluorescent dyes, DIOC2(3) and TO-PRO-3, and flow cytometry. DIOC2(3) is a cationic dye that accumulates in the cytoplasm of cells with an active membrane potential and shifts its fluorescence from red to green. The dye also stains the membrane of the cells in green and as a result the ratio of the red to green signals can provide a morphology and size independent measure of membrane potential (FIG. 14B). TO-PRO-3 is a nucleic acid stain that only stains cells with compromised membranes (FIG. 14B).

In the case of `O=C(N[C@H](CO)[C@H](O)c1ccc([N+](=O)[O-])cc1)C(Cl)Cl` [chloramphenicol], the cpxP expression result in [1] is listed as “did not”.
With Bleomycin, in [2] (setting [9]), the MIC was found to be 0.1 µM.
For `Clc1ccc(C(c2ccc(Cl)cc2)n2cc[n+](CC(OCc3ccc(Cl)cc3Cl)c3ccc(Cl)cc3Cl)c2)cc1.[Cl-]` (stereo not shown) [Calmidazolium chloride, 1-[bis(4-Chlorophenyl)methyl]-3-[2-(2,4-dichlorophenyl)-2-(2,4-dichlorobenzyloxy)ethyl]-1H-imidazolium chloride], the MIC was less than 1 µg/mL in test [3], less than 1 µg/mL in test [4], 3.12 µM in test [2] (Escherichia coli) and less than 1 µg/mL in [5].
For `CC[n+]1c(C=CC=C2N(C)c3ccccc3C2(C)C)sc2ccccc21` [AC-93253 iodide, 2-[3-(1,3-dihydro-1,3,3-trimethyl-2H-indol-2-ylidene)-1-propenyl]-3-ethyl-benzothiazolium iodide], the MIC in test [2] (Escherichia coli) worked out at 6.25 µM.
As to `CN(C)CCCN1c2ccccc2Sc2ccc(C(F)(F)F)cc21` [Triflupromazine, N,N-dimethyl-3-[2-(trifluoromethyl)phenothiazin-10-yl]propan-1-amine], the cpxP expression result in test [1] was “induced cpxP expression”. The MIC in test [2] (Escherichia coli) came out at 25 µM.
For `CC(=O)OC[C@H]1O[C@@H]([S-])[C@H](OC(C)=O)[C@@H](OC(C)=O)[C@@H]1OC(C)=O.CCP(CC)CC.[Au+]` [Auranofin], the MIC in test [2] (setting [9]) was determined as 6.25 µM.
With `CC(C)c1ccc(Cn2ccc3c4c(N)nc(NC5CC5)nc4ccc32)cc1` [SCH 79797, N3-Cyclopropyl-7-[[4-(1-methylethyl)phenyl]methyl]-7H-pyrrolo[3,2-F]quinazoline-1,3-diamine dihydrochloride], the “dihydrofolate (DHF) levels versus normal DHF levels” value in test [6] (1× MIC for 15 minutes) is recorded as “approximately 10 fold”. Besides, in the test with NCM 3722 E. coli cells, the “MIC (1× MIC)” value is 31.25 µM. Further, the MIC in test [2] (Escherichia coli) worked out at 25 µM.
As for `COc1cccc(C2(O)CCCCC2CN(C)C)c1` (stereo not shown) [Tramadol hydrochloride], in test [2] (Escherichia coli), the MIC came to 6.25 µM.
Take gentamicin: in test [1], the cpxP expression entry is recorded as “induced cpxP expression”.
Regarding `O=C1Nc2ccc(I)cc2C1=Cc1cc(Br)c(O)c(Br)c1` [GW5074, 3-(3,5-dibromo-4-hydroxybenzyliden)-5-iodo-1,3-dihydroindol-2-one], the MIC in test [2] (Escherichia coli) amounted to 6.25 µM.
For `CC[n+]1c(-c2ccccc2)c2cc(N)ccc2c2ccc(N)cc21` [Homidium bromide], in test [2] (Escherichia coli), the MIC was 25 µM.
As for `CN[C@@H]1[C@@H](O[C@H]2O[C@H](CO)[C@@H](N)[C@H](O)[C@H]2O)OC2C[C@@H](N)[C@@H](O[C@H]3[C@H](O)[C@@H](O)[C@H](N)C[C@@H]3N)OC2[C@@H]1O` (stereo partly shown) [apramycin], the cpxP expression result in test [1] is listed as “induced cpxP expression”.
With `O=c1[nH]c(=O)n([C@H]2C[C@H](O)[C@@H](CO)O2)cc1F` [Floxuridine], the MIC in test [2] (Escherichia coli) was determined as 6.25 µM.
On the same count and under the same terms, the result for `O=S(=O)(NCCNCC=Cc1ccc(Br)cc1)c1cccc2cnccc12` [H 89 dihydrochloride, N-[2-(p-Bromocinnamylamino)ethyl]-5-isoquinolinesulfonamide dihydrochloride] reads 12.5 µM.
`CCCCCc1ccc(C=CC(=O)Nc2cc(Cl)ccc2C(=O)O)cc1` [ONO-RS-082, 2-(p-amylcinnamoyl)amino-4-chlorobenzoic acid]: the MIC in [7] was 2 µg/mL (≈ 5.38 µM); in [4] it was 0.25 µg/mL (≈ 0.672 µM); in test [2] (Escherichia coli), 3.12 µM.
`Cc1nc2ccccc2n1Cc1ccc(Cl)cc1` [Chlormidazole]: the MIC in test [2] (Escherichia coli) amounted to 25 µM.
Same read-out and setting: the result for `CC(=O)[C@]1(O)Cc2c(O)c3c(c(O)c2[C@@H](O[C@H]2C[C@H](N)[C@H](O)[C@H](C)O2)C1)C(=O)c1ccccc1C3=O` [Idarubicin] reads 25 µM; that for `O=[N+]([O-])C(Br)(CO)CO` [Bronopol], 25 µM.
As to `Oc1ccc(Cl)cc1Cc1cc(Cl)ccc1O` [Dichlorophen], the MIC in [2] (Escherichia coli) is 12.5 µM.
The same measure, in the same setting: the value for `O=C(NC[C@H]1CN(c2ccc(N3CCOCC3=O)cc2)C(=O)O1)c1ccc(Cl)s1` [Rivaroxaban, (S)-5-Chloro-N-((2-oxo-3-(4-(3-oxomorpholino)phenyl)oxazolidin-5-yl)methyl)thiophene-2-carboxamide] was 0.05 µM.
Consider `CCCCCCCCCCCCCCC[C@H](O)[C@H](N)CO` (racemic) [DL-erythro-dihydrosphingosine], for which, in test [2] (setting [9]), the MIC amounted to 12.5 µM.
Turning to `COc1cc(Cc2cnc(N)nc2N)cc(OC)c1OC` [Trimethoprim], the “metabolic response characteristic of FolA inhibition” value in test [6] (NCM 3722 cells) is “also observed”. In test [8] (sub-MIC / sub-lethal dose), the “sensitivity of dihydrofolate reductase (folA) knockdown” value is recorded as “sensitized”. Moreover, the “sensitivity of dihydrofolate synthetase (folC) knockdown” value in test [8] (sub-MIC / sub-lethal dose on agar, confirmed in liquid) is listed as “sensitized”. In the test on ΔthyA lptD4213 cells, the “susceptibility of ΔthyA lptD4213 cells” value is listed as “resistant to high levels”.
Consider `CCCCC(CC)CNC(=N)NC(=N)NCCCCCCNC(=N)NC(=N)NCC(CC)CCCC` (stereo not shown) [Alexidine hydrochloride], for which the MIC in [2] (Escherichia coli) stood at 12.5 µM.
